Test results from the SangsterLogP compilation.

Row | logP | SMILES
1 | 4.48 | CCCC(=NOCC)C1C(=O)CC2(CC(C)CC(C)C2)OC1=O (centres undefined)
2 | 5 | CCCC(=NOCC)C1C(=O)CC2(CCCc3ccccc32)OC1=O (centres undefined)
3 | 3.22 | CCCC(=NOCC)C1C(=O)CC2(CCCC2)OC1=O (centres undefined)
4 | 3.4 | CC=C(C)C1(C)CC(=O)C(C(CCC)=NOCC)C(=O)O1 (centres undefined)
5 | 2.9 | CCCC(=NOCC)C1C(=O)CC2(CCSCC2)OC1=O (centres undefined)
6 | 4.75 | CCCC(=NOCC)C1C(=O)CC(c2ccccc2)(c2ccccc2)OC1=O (centres undefined)
7 | 3.28 | CCCC(=NOCC)C1C(=O)CC(C)(C2CC2)OC1=O (centres undefined)
8 | 3.9 | CCCC(=NOCC)C1C(=O)CC2(CCCCC2C)OC1=O (centres undefined)
9 | 3.2 | CCCC(=NOCC)C1C(=O)CC2(C=CCCC2)OC1=O (centres undefined)
10 | 3.62 | CCCC(=NOCC)C1C(=O)CC2(CCCCC2)OC1=O (centres undefined)
11 | 3.66 | CCCC(=NOCC)C1C(=O)CC2(CCC(C)C2)OC1=O (centres undefined)
12 | 5.3 | CCCC(=NOCC)C1C(=O)CC2(CCC(C(C)(C)C)CC2)OC1=O (centres undefined)
13 | 4.07 | CCCC(=NOCC)C1C(=O)CC2(CCC(C)CC2)OC1=O (centres undefined)
14 | 4.48 | CCCC(=NOCC)C1C(=O)CC2(CCC(CC)CC2)OC1=O (centres undefined)
